Among the test systems are A498 renal; HCC-2998 colon; MOLT-4 leukemia; NCI/ADR-RES ovarian; SNB-75 CNS; SK-MEL-5 melanoma; HS 578T breast; NCI-H460 lung; LOX IMVI melanoma; SF-268 CNS; NCI-H226 lung; OVCAR-4 ovarian; OVCAR-3 ovarian; T-47D breast; SK-OV-3 ovarian.
Test in all cases: DTP human tumour cell line panel, 48 h

Where “and” joins values, the source holds several entries; their conditions need not be identical. Identical values can stand only once.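 Step 1: Grow cells in 96-well plates. Step 2: Expose to compound for 48 hours at 5 concentrations. Step 3: Interpolate endpoints linearly; if unreached, use highest concentration. TGI: total growth inhibition.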

The TGI is the concentration giving total growth inhibition. Read a high TGI as less potent growth arrest. For `CC1CCCOc2ccc(cc2)C=Nc2ccc(cc2)CCc2ccc(cc2)N=Cc2ccc(cc2)OCCC1` (stereo not given), the TGI in the test on A498 renal, with HCC-2998 colon, with MOLT-4 leukemia, in the test on NCI/ADR-RES ovarian, in the test on SNB-75 CNS and with SK-MEL-5 melanoma was above 100 µM in each case. Further, the TGI with HS 578T breast, with NCI-H460 lung, in the test with LOX IMVI melanoma, in the test on SF-268 CNS, in the test on NCI-H226 lung and in the test with OVCAR-4 ovarian was above 100 µM each time. Moreover, the TGI in the test on OVCAR-3 ovarian was above 100 µM.

On to `COC(=O)c1cc(Br)c(C(=O)C(Cl)(Cl)Cl)[nH]1`, for which the TGI in the test on A498 renal, in the test with MOLT-4 leukemia, in the test on NCI/ADR-RES ovarian, in the test on SNB-75 CNS, in the test on SK-MEL-5 melanoma and in the test with T-47D breast was above 100 µM in each case. The TGI in the test with NCI-H460 lung, in the test on LOX IMVI melanoma, in the test with SF-268 CNS, in the test on NCI-H226 lung, in the test with SK-OV-3 ovarian and in the test with OVCAR-4 ovarian was above 100 µM in each case. For the same compound, the TGI in the test with OVCAR-3 ovarian is above 100 µM.

`N#CN=Nc1cc(Cl)c(N=NC#N)cc1Cl`: the TGI with A498 renal, with HCC-2998 colon, in the test with MOLT-4 leukemia, in the test with SNB-75 CNS, in the test with SK-MEL-5 melanoma and in the test on NCI-H460 lung was above 100 µM throughout. Moreover, the TGI in the test with LOX IMVI melanoma, with SF-268 CNS, in the test on NCI-H226 lung, in the test on SK-OV-3 ovarian, in the test with OVCAR-4 ovarian and in the test on OVCAR-3 ovarian was above 100 µM throughout.

Regarding `COc1cc(CC2CCc3nc(N)nc(N)c3C2)cc(OC)c1OC` (stereo not given), the TGI with A498 renal is above 87.8 µM; in the test with HCC-2998 colon it was above 46.9 µM; in the test with MOLT-4 leukemia it was above 100 µM; in the test on SNB-75 CNS, above 48.8 µM; in the test on SK-MEL-5 melanoma it was 16.6 µM; in the test with HS 578T breast, above 100 µM. Moreover, the TGI in the test on T-47D breast is above 100 µM; in the test on NCI-H460 lung, above 91.5 µM; in the test on LOX IMVI melanoma it was above 43.1 µM; in the test with SF-268 CNS, 13.4 µM; in the test on NCI-H226 lung it was above 66.1 µM; in the test with SK-OV-3 ovarian, above 100 µM. In addition, the TGI with OVCAR-4 ovarian and in the test with OVCAR-3 ovarian was above 100 µM each time.

`C=C(Cl)C(C)(Cl)CCC(Cl)C(C)(C)Cl` (stereo not given): the TGI is above 100 µM in the test on A498 renal; above 100 µM in the test with HCC-2998 colon; 66.1 µM in the test on MOLT-4 leukemia; above 100 µM with NCI/ADR-RES ovarian; above 100 µM in the test with SNB-75 CNS; above 100 µM with SK-MEL-5 melanoma. In addition, the TGI in the test with HS 578T breast was above 100 µM; in the test with NCI-H460 lung, above 100 µM; in the test with LOX IMVI melanoma it was 61.2 µM; in the test on SF-268 CNS it was above 100 µM; in the test with NCI-H226 lung, above 100 µM; in the test on SK-OV-3 ovarian it was above 100 µM. The concentration for total growth inhibition (TGI) in the test with OVCAR-4 ovarian and in the test on OVCAR-3 ovarian was above 100 µM in each case.

With `CCSC(=Nc1ccccc1)SC`, the TGI with HCC-2998 colon, in the test on MOLT-4 leukemia, in the test on SNB-75 CNS, in the test with SK-MEL-5 melanoma, in the test on NCI-H460 lung and in the test on LOX IMVI melanoma was above 100 µM each time. The TGI in the test with SF-268 CNS, in the test on NCI-H226 lung, in the test with SK-OV-3 ovarian, in the test on OVCAR-4 ovarian and in the test with OVCAR-3 ovarian was above 100 µM in each case.

For the compound `Cc1ccc(S(=O)(=O)Nn2c(-c3ccccc3)c(C#N)c(-c3ccc(Cl)cc3)c(C#N)c2=O)cc1`, the TGI in the test with A498 renal was 51.1 µM; in the test with HCC-2998 colon, above 100 µM; with MOLT-4 leukemia, 52.8 µM; in the test with SK-MEL-5 melanoma, 29.3 µM; in the test on NCI-H460 lung, above 100 µM; in the test with LOX IMVI melanoma it was 52.2 µM. Also, the TGI in the test with SK-OV-3 ovarian and with OVCAR-4 ovarian was above 100 µM throughout.

In the case of `CN(C)CCOc1cc2c(c3ccccc13)-c1ccccc1C2=O`, the TGI in the test with A498 renal was 19.3 µM; in the test on HCC-2998 colon it was 4.68 µM; in the test on MOLT-4 leukemia it was 3.92 µM; in the test with NCI/ADR-RES ovarian, 2.64 µM; with SNB-75 CNS, 4.64 µM; in the test with SK-MEL-5 melanoma it was 2.96 µM. In addition, the TGI in the test on NCI-H460 lung was 2.34 µM; with LOX IMVI melanoma, 2.53 µM; with SF-268 CNS, 3.24 µM; in the test with NCI-H226 lung, 5.69 µM; in the test on SK-OV-3 ovarian, 24.6 µM; with OVCAR-4 ovarian, 2.68 µM. In the test with OVCAR-3 ovarian, this compound yielded a TGI of 4.99 µM.

In the case of `CC(N)Cc1cccc(C(F)(F)F)c1` (stereo not given), the TGI in the test on A498 renal, with HCC-2998 colon, with SNB-75 CNS, in the test on SK-MEL-5 melanoma, in the test with NCI-H460 lung and in the test with LOX IMVI melanoma was above 100 µM each time. The TGI in the test on SF-268 CNS, in the test with NCI-H226 lung, in the test with SK-OV-3 ovarian, in the test on OVCAR-4 ovarian and in the test on OVCAR-3 ovarian was above 100 µM each time.

As to `CCC1(O)CC(OC2CC(N(C)C)C(OC3CC(O)C(OC4OC(C)C(=O)C=C4N)C(C)O3)C(C)O2)c2c(O)c3c(c(O)c2C1C(=O)OC)C(=O)c1cccc(O)c1C3=O` (stereo not given), the TGI in the test with A498 renal was 0.0129 µM; in the test on HCC-2998 colon it was 0.118 µM; in the test with SNB-75 CNS, 0.223 µM; in the test with SK-MEL-5 melanoma, 0.0659 µM; with HS 578T breast, 0.366 µM and 1.47 µM; in the test with NCI-H460 lung, 0.0151 µM. Besides, the TGI with LOX IMVI melanoma stood at 0.613 µM; with SF-268 CNS, 0.299 µM; in the test on NCI-H226 lung, 0.0806 µM; in the test on OVCAR-3 ovarian it was 0.15 µM.

As for `CC(=O)O[C@H]1C(=O)[C@@]2(C)C(C(OC(=O)c3ccccc3)[C@]3(O)CC(OC(=O)C(O)C(NC(=O)c4ccccc4)c4ccc(F)cc4)C(C)=C1C3(C)C)[C@]1(OC(C)=O)CO[C@@H]1C[C@@H]2O` (stereo not given in full), the TGI is 0.0193 µM in the test on HCC-2998 colon; 2.73 µM with MOLT-4 leukemia; above 4.04 µM with NCI/ADR-RES ovarian; above 10 µM in the test on SNB-75 CNS; above 3.32 µM with SK-MEL-5 melanoma; above 10 µM in the test on T-47D breast. Besides, the TGI in the test on NCI-H460 lung, in the test on LOX IMVI melanoma, with SF-268 CNS, in the test on SK-OV-3 ovarian and with OVCAR-4 ovarian was above 10 µM each time.

(Values after PubChem BioAssay (NCI).)
